The numbers were not newly measured in paper PMC2962921 (Chembiochem : a European journal of chemical biology, 2008), which cites them from elsewhere.

Where two headings read alike, the source gives them in different places.

This data set deals with Gαi1*GDP.

One may read the Kd as the free concentration of one partner at which half of the binding sites on the other are occupied at equilibrium, for simple one-to-one binding. As for DKLYWWEFL, the Kd (binding to heterotrimeric inhibitory G protein Gαi1*GDP) is 200 nM.

Regarding MSQTKRLDDQLYWWEYL [R6A], the Kd (R6A peptide, competitor in the equilibrium competition) was 60 nM.
